In patent US9284348B2, “Method for synthesis of peptide using a carrier” (JITSUBO Co., Ltd., priority 2005, dated 2016):
≈ marks a conversion by molar mass, not a printed value.

How the values were obtained:
[1] = Evaluation of separation efficiency: excision of the compound from the carrier with trifluoroacetic acid/dichloromethane, material consumption by HPLC; format: physicochemical
Description: By stirring the obtained compound 7 (4-iodo-benzoic acid 2,4-bis-octadecyloxybenzyl ester) in solvents listed in Table 2 and for the times shown in Table 2, separation of the compound from the carrier was performed to obtain the reaction rate. In this case, the reaction rate was calculated by assessing the disappearance of material by HPLC.
Regarding compound 9 (4-iodo-benzoic acid 3,4,5-tris-octadecyloxybenzyl ester) having the following formula 6, which was prepared by condensing 4-iodobenzoic acid to compound 6 (3,4,5-tris-octadecyloxybenzyl alcohol), the separation reaction rate was measured under various conditions similar to in Example 2.
The above-obtained compound was evaluated for the separation efficiency, similar to Example 3, when it was stirred in dichloromethane containing 1% trifluoroacetic acid for 30 min. As a result, the reaction rate was 100%.

[2] = Evaluation of solubility in organic solvents at 25° C.; format: physicochemical; conditions: tetrahydrofuran, organic solvent or mixture
Description: The compound 2 (2,4-bisoctadecyloxyphenylmethanol) thus obtained was measured for solubility in hexane, cyclohexane, dichloromethane and tetrahydrofuran, respectively, when used as solvents at 25° C.
3,4,5-Tris-octadecyloxybenzylalcohol (compound 6) having the following chemical formula was measured for solubility in various solvents at 25° C. similar to as in Example 1.

[3] = 1% trifluoroacetic acid/dichloromethane, 30 min
[4] = 10% trifluoroacetic acid/dichloromethane, 120 min
[5] = 50% trifluoroacetic acid/dichloromethane, 120 min

SMILES	Reaction rate (material consumption evaluated by HPLC measurement) [1, 3]	Reaction rate (material consumption evaluated by HPLC measurement) [1, 4]	Reaction rate (material consumption evaluated by HPLC measurement) [1, 5]	solubility [2]
CCCCCCCCCCCCCCCCCCOc1cc(COC(=O)c2ccc(I)cc2)cc(OCCCCCCCCCCCCCCCCCC)c1OCCCCCCCCCCCCCCCCCC [Compound 9, 4-iodo-benzoic acid 3,4,5-tris-octadecyloxybenzyl ester, reference compound]	1< %	12%	100%	–
CCCCCCCCCCCCCCCCCCOc1ccc(COC(=O)c2ccc(I)cc2)c(OCCCCCCCCCCCCCCCCCC)c1 [Compound 7, 4-iodo-benzoic acid 2,4-bis-octadecyloxybenzyl ester]	100%	100%	100%	–
CCCCCCCCCCCCCCCCCCCCCCOc1ccc(CO)c(OCCCCCCCCCCCCCCCCCCCCCC)c1 [2,4-bis-docosanoxyphenyl methanol]	–	–	–	236 mg/mL (≈ 312 mM)
CCCCCCCCCCCCCCCCCCCCCCOc1ccc(COC(=O)c2ccc(I)cc2)c(OCCCCCCCCCCCCCCCCCCCCCC)c1 [4-iodo-benzoic acid 2,4-bis-docosanoxybenzyl ester]	100%	–	–	–
